Data: US20110256238A1, “WOOD PRESERVATIVE AND WOOD PROCESSING METHOD” (SDS BIOTECH K.K., priority 2008, published 2011)

Legend:
Trametes versicolor = experiment: Agar medium colony growth inhibition test on Trametes versicolor, with Colby synergy calculation; assay type: cell-based; conditions: single compound, 0.2 ppm, potato dextrose agar, 25° C., seventh day
Description: Each of 1% w/v dimethylsulfoxide solution of compound A, cyproconazole (manufactured by Wako Pure Chemical Industries, Ltd.), epoxyconazole (manufactured by Wako Pure Chemical Industries, Ltd.) and tetraconazole (manufactured by Wako Pure Chemical Industries, Ltd.) was prepared. The solutions diluted with dimethylsulfoxide were fully mixed in the sterilized potate dextrose agar medium, and 15 ml of the resultant medium was poured into a petri dish 90 mm in diameter and allowed to stand at room temperature. As a control, the potate dextrose agar medium added with dimethylsulfoxide only was also prepared. After the medium was solidified, the mycelia was scooped with the medium from the colony of Trametes versicolor as being a typical wood-decaying fungi, which had been cultivated in advance, using a cork baller 5 mm in diameter; and inoculated in the center of the test medium. The fungi was cultivated in the petri dish at 25° C., and the diameter of the colony spread from the source of inoculum was measured on the seventh day. The growth inhibition ratio by comparing the diameter of the test colony to that of the control was determined by the above-mentioned formula as an indication of the actual measured growth inhibition ratio. The theoretical efficacy ratio of the mixture of the active ingredients (i.e. theoretical growth inhibition ratio) was determined using the following Colby's formula (R. S. Colby, Weeds 15, 20-22 (1967)) to thereby be compared with the actual-measured efficacy ratio ([…]).
Colby's formula: E=x+y−x·y/100 [Formula 2]
E: theoretical efficacy ratio (theoretical growth inhibition ratio) represented by the ratio (%) to the control when the mixture of active compound B (concentration b) and C (concentration c) was used. x: efficacy ratio (growth inhibition ratio) represented by the ratio (%) to the control when active compound B was used at a concentration of b. y: efficacy ratio (growth inhibition ratio) represented by the ratio (%) to the control when active compound C was used at a concentration of c.

Coniphora puteana = experiment: Agar medium colony growth inhibition test on Coniphora puteana; assay type: cell-based; conditions: 0.2 ppm in potato dextrose agar, 25° C., colony diameter on the seventh day vs control
Description: A predetermined amount of the solutions diluted with dimethylsulfoxide were fully mixed in the sterilized potato dextrose agar medium, and 15 ml of the resultant medium was poured into a petri dish 90 mm in diameter and allowed to stand at room temperature. As a control, the potato dextrose agar medium added with dimethylsulfoxide only was also prepared. […] The fungi was cultivated in the petri dish at 25° C., and the diameter of the colony spread from the source of inoculum was measured on the seventh day. The growth inhibition ratio between the diameter of the test colony and that of the control was determined by the following formula as an indication of the degree of inhibition. Compound A apparently had greater effects on Coniphora puteana compared to the compounds which had been disclosed in the past. Growth inhibition ratio (%)={(diameter of the control colony−diameter of the test colony)/diameter of the control colony}×100 [Formula 1]

| Compound | Degree of inhibition on Coniphora puteana at 0.2 ppm (Coniphora puteana) | also measured |
| --- | --- | --- |
| Fc1ccc([C@]2(Cn3cncn3)O[C@H]2c2ccccc2Cl)cc1 (racemic) [Epoxiconazole] | – | Actual measured growth inhibition ratio (%) (Trametes versicolor): 24% |
| CC(C)c1cccc(NC(=O)c2ccccc2C(F)(F)F)c1 [Compound A, 3′-isopropyl-2-trifluoromethyl benzoic acid anilide] | – | inhibition at 0.2 ppm (Coniphora puteana; read-out: Degree of inhibition on Coniphora puteana at 0.2 ppm): ≥ 75%; melting point: 98 to 101 °C; Actual measured growth inhibition ratio (%) (Trametes versicolor): 35% |
| FC(F)C(F)(F)OCC(Cn1cncn1)c1ccc(Cl)cc1Cl (stereo not shown) [Tetraconazole] | – | Actual measured growth inhibition ratio (%) (Trametes versicolor): 25% |
| CC(C)Oc1cccc(NC(=O)c2ccccc2C(F)(F)F)c1 [compound 1, 3′-isopropoxy-2-trifloromethyl benzoic acid anilide] | ▴ (inhibition ratio of 25 to 50%) | – |
| Cc1ccccc1C(=O)Nc1cccc(OC(C)C)c1 [compound 2, 3′-isopropoxy-2-methyl benzoic acid anilide] | ▴ (inhibition ratio of 25 to 50%) | – |
| Cc1ccccc1C(=O)Nc1cccc(C(C)C)c1 [compound 3, 3′-isopropyl-2-methyl benzoic acid anilide] | ▴ (inhibition ratio of 25 to 50%) | – |
| CC(C)c1cccc(NC(=O)c2ccccc2I)c1 [compound 4, 3′-isopropyl-2-iodobenzoic acid anilide] | ▴ (inhibition ratio of 25 to 50%) | – |
| CC(C)Oc1cccc(NC(=O)c2ccccc2I)c1 [compound 5, 3′-isopropoxy-2-iodobenzoic acid anilide] | ▴ (inhibition ratio of 25 to 50%) | – |
| CC(C)c1cccc(NC(=O)c2ccccc2[N+](=O)[O-])c1 [compound 6, 3′-isopropyl-2-nitrobenzoic acid anilide] | x (inhibition ratio of 25% or less) | – |
| CC(C)c1cccc(NC(=O)c2ccccc2Br)c1 [compound 7, 3′-isopropyl-2-bromobenzoic acid anilide] | ▴ (inhibition ratio of 25 to 50%) | – |
| O=C(Nc1ccccc1)c1ccccc1C(F)(F)F [compound 8, 2-trifloromethyl benzoic acid anilide] | x (inhibition ratio of 25% or less) | – |
| CC(C)c1ccccc1NC(=O)c1ccccc1C(F)(F)F [compound 9, 2′-isopropyl-2-trifloromethyl benzoic acid anilide] | x (inhibition ratio of 25% or less) | – |
| CC(C)c1ccc(NC(=O)c2ccccc2C(F)(F)F)cc1 [compound 10, 4′-isopropyl-2-trifloromethyl benzoic acid anilide] | x (inhibition ratio of 25% or less) | – |
| Cc1cccc(NC(=O)c2ccccc2C(F)(F)F)c1 [compound 11, 3′-methyl-2-trifloromethyl benzoic acid anilide] | ▴ (inhibition ratio of 25 to 50%) | – |
| CCc1cccc(NC(=O)c2ccccc2C(F)(F)F)c1 [compound 12, 3′-ethyl-2-trifloromethyl benzoic acid anilide] | ▴ (inhibition ratio of 25 to 50%) | – |
| O=C(Nc1cccc(C(F)(F)F)c1)c1ccccc1C(F)(F)F [compound 13, 2,3′-trifluoromethyl benzoic acid anilide] | x (inhibition ratio of 25% or less) | – |
| O=C(Nc1cccc(OC(F)(F)F)c1)c1ccccc1C(F)(F)F [compound 14, 3′-trifluoromethoxy-2-trifloromethyl benzoic acid anilide] | x (inhibition ratio of 25% or less) | – |
| O=C(Nc1cccc(F)c1)c1ccccc1C(F)(F)F [compound 15, 3′-fluoro-2-trifloromethyl benzoic acid anilide] | x (inhibition ratio of 25% or less) | – |
| O=C(Nc1cccc(Cl)c1)c1ccccc1C(F)(F)F [compound 16, 3′-chloro-2-trifloromethyl benzoic acid anilide] | x (inhibition ratio of 25% or less) | – |
| O=C(Nc1cccc(Br)c1)c1ccccc1C(F)(F)F [compound 17, 3′-bromo-2-trifloromethyl benzoic acid anilide] | x (inhibition ratio of 25% or less) | – |
| O=C(Nc1cccc(I)c1)c1ccccc1C(F)(F)F [compound 18, 3′-iodo-2-trifloromethyl benzoic acid anilide] | x (inhibition ratio of 25% or less) | – |
| Cc1ccc(C(C)C)cc1NC(=O)c1ccccc1C(F)(F)F [compound 19, 5′-isopropyl-2′-methyl-2-trifluoromethyl benzoic acid anilide] | x (inhibition ratio of 25% or less) | – |
| CC(C1CC1)C(O)(Cn1cncn1)c1ccc(Cl)cc1 (stereo not shown) [cyproconazole] | – | Actual measured growth inhibition ratio (%) (Trametes versicolor): 33% |
